Reference: patent US12643883B2, “Solid state forms of a kinase inhibitor” (Deciphera Pharmaceuticals, LLC, priority 2023, dated 2026)

What was measured:
Type in all cases: physicochemical
[1] = Static storage stability of crystalline dihydrate and anhydrous forms (XRPD, DSC, KF once weekly for four weeks)
Method: The stability of crystalline dihydrate and anhydrous forms of the compound represented by Formula (I) at varying relative humidity (RH) and temperature was investigated.
For example, the stability of crystalline dihydrate and anhydrous forms of the compound represented by Formula (I), as prepared according to Example 1 and Example 2, respectively, was studied under other conditions by placing aliquots of each form in static storage at conditions of 40° C./75% RH, 25° C./97% RH, 40° C./0% RH and 25° C./0% RH and analyzing the aliquots once weekly for four weeks using XRPD, DSC, and KF.

[2] = Hydration of the crystalline anhydrous form in low water activity solvents; settings: water activity 0.1, Ambient, XRPD
Method: The hydration of the crystalline anhydrous form was studied using aqueous solvent systems with low water activity of 0.1. Slurries of the crystalline anhydrous form in the respective solvent were agitated for 6 days at room temperature. Aliquots of isolated materials were analyzed after 24, 48, and 144 hours of agitation. Table 12 summarizes the experiment conditions and isolated crystalline forms, as determined by XRPD.

[3] = Hydration experiment, slurry of crystalline anhydrous form in deionized water; settings: successive 4-hour heat-cool cycles between 40° C. and room temperature for 72 hours
Method: In a hydration experiment, a slurry of the crystalline anhydrous form of the compound represented by Formula (I) and deionized water was subjected to successive 4-hour heat-cool cycles between 40° C. and room temperature for 72 hours.

[4] = static storage 25° C./0% RH, Week 1
[5] = static storage 25° C./0% RH, Week 2
[6] = static storage 25° C./0% RH, Week 3
[7] = static storage 25° C./0% RH, Week 4
[8] = static storage 25° C./97% RH, Week 1
[9] = static storage 25° C./97% RH, Week 2
[10] = static storage 25° C./97% RH, Week 3
[11] = static storage 25° C./97% RH, Week 4
[12] = static storage 40° C./0% RH, Week 1
[13] = static storage 40° C./0% RH, Week 2
[14] = static storage 40° C./0% RH, Week 3
[15] = static storage 40° C./0% RH, Week 4
[16] = static storage 40° C./75% RH, Week 1
[17] = static storage 40° C./75% RH, Week 2
[18] = static storage 40° C./75% RH, Week 3
[19] = static storage 40° C./75% RH, Week 4
[20] = static storage 25° C./0% RH, Week 4, listed as crystalline dihydrate form (having average crystal sizes of about 1 mm), dihydrate
[21] = static storage 40° C./0% RH, Week 1, dihydrate
[22] = static storage 40° C./0% RH, Week 4, listed as crystalline dihydrate form (having average crystal sizes of about 1 mm), dihydrate

With `Cc1nc(-c2cnc(NC(C)C)n(C)c2=O)ccc1Oc1ccnc(-c2cnn(C)c2)c1` [2-(isopropylamino)-3-methyl-5-(6-methyl-5-((2-(1-methyl-1H-pyrazol-4-yl)pyridin-4-yl)oxy)pyridin-2-yl)pyrimidin-4 (3H)-one] the “stability under all storage conditions” value ([1]; 40° C./75% RH, 25° C./97% RH, 40° C./0% RH and 25° C./0% RH, after 4 weeks) was “remained stable”, the “KF (%)” value [1, 4] was 0.1% and the XRPD [1, 4] was “Anhydrous”. For the same compound, the “KF (%)” value [1, 5] was 0.1%, the XRPD [1, 5] was “Anhydrous” and the “KF (%)” value [1, 6] was 0.0%. For the same compound, the XRPD [1, 6] was “Anhydrous”, the “KF (%)” value [1, 7] was 0.2% and the XRPD [1, 7] was “Anhydrous”. The “KF (%)” value [1, 8] was 0.3%, the XRPD [1, 8] was “Anhydrous” and the “KF (%)” value [1, 9] was 0.3%. The XRPD [1, 9] was “Anhydrous”, the “KF (%)” value [1, 10] was 0.2% and the XRPD [1, 10] was “Anhydrous”. For the same compound, the “KF (%)” value [1, 11] was 0.4%, the XRPD [1, 11] was “Anhydrous” and the “KF (%)” value [1, 12] was 0.1%. The XRPD [1, 12] was “Anhydrous”, the “KF (%)” value [1, 13] was 0.0% and the XRPD [1, 13] was “Anhydrous”. For the same compound, the “KF (%)” value [1, 14] was 0.0%, the XRPD [1, 14] was “Anhydrous” and the “KF (%)” value [1, 15] was 0.2%. The XRPD [1, 15] was “Anhydrous”, the “KF (%)” value [1, 16] was 0.3% and the XRPD [1, 16] was “Anhydrous”. The “KF (%)” value [1, 17] was 0.2%, the XRPD [1, 17] was “Anhydrous” and the “KF (%)” value [1, 18] was 0.1%. The XRPD [1, 18] was “Anhydrous”, the “KF (%)” value [1, 19] was 0.3% and the XRPD [1, 19] was “Anhydrous”. For the same compound, the “Observed Forms 24 h” value ([2]; slurry in Acetone/water (99:1)) was “Anhydrous”, the “Observed Forms 144 h” value ([2]; slurry in Acetone/water (99:1)) was “Anhydrous” and the “Observed Forms 24 h” value ([2]; slurry in MEK/water (99:1)) was “Anhydrous”. The “Observed Forms 144 h” value ([2]; slurry in MEK/water (99:1)) was “Dihydrate” and the “isolated solid identified by XRPD” value [3] was “crystalline dihydrate form”.
For `Cc1nc(-c2cnc(NC(C)C)n(C)c2=O)ccc1Oc1ccnc(-c2cnn(C)c2)c1` [Dihydrate form of the compound represented by Formula (I) (h] [2-(isopropylamino)-3-methyl-5-(6-methyl-5-((2-(1-methyl-1H-pyrazol-4-yl)pyridin-4-yl)oxy)pyridin-2-yl)pyrimidin-4 (3H)-one dihydrate], the XRPD ([1]; static storage 25° C./0% RH, Week 1, dihydrate) was “Dihydrate”, the “KF (%)” value ([1]; static storage 25° C./0% RH, Week 1, dihydrate, dihydrate crystals about 10-50 µm) was 7.5% and the XRPD ([1]; static storage 25° C./0% RH, Week 2, dihydrate) was “Dihydrate”. For the same compound, the “KF (%)” value ([1]; static storage 25° C./0% RH, Week 2, dihydrate, dihydrate crystals about 10-50 µm) was 7.7%, the XRPD ([1]; static storage 25° C./0% RH, Week 3, dihydrate) was “Dihydrate” and the “KF (%)” value ([1]; static storage 25° C./0% RH, Week 3, dihydrate, dihydrate crystals about 10-50 µm) was 8.1%. The XRPD ([1]; static storage 25° C./0% RH, Week 4, dihydrate) was “Dihydrate”, the “KF (%)” value ([1]; static storage 25° C./0% RH, Week 4, dihydrate, dihydrate crystals about 10-50 µm) was 7.9% and the “KF (%)” value [1, 20] was 5.8%. For the same compound, the XRPD [1, 20] was “partially converted to the crystalline anhydrous form”, the XRPD ([1]; static storage 25° C./97% RH, Week 1, dihydrate) was “Dihydrate” and the “KF (%)” value ([1]; static storage 25° C./97% RH, Week 1, dihydrate, dihydrate crystals about 10-50 µm) was 7.6%. For the same compound, the XRPD ([1]; static storage 25° C./97% RH, Week 2, dihydrate) was “Dihydrate”, the “KF (%)” value ([1]; static storage 25° C./97% RH, Week 2, dihydrate, dihydrate crystals about 10-50 µm) was 7.5% and the XRPD ([1]; static storage 25° C./97% RH, Week 3, dihydrate) was “Dihydrate”. For the same compound, the “KF (%)” value ([1]; static storage 25° C./97% RH, Week 3, dihydrate, dihydrate crystals about 10-50 µm) was 7.9%, the XRPD ([1]; static storage 25° C./97% RH, Week 4, dihydrate) was “Dihydrate” and the “KF (%)” value ([1]; static storage 25° C./97% RH, Week 4, dihydrate, dihydrate crystals about 10-50 µm) was 7.9%. For the same compound, the XRPD ([1]; static storage 25° C./97% RH, Week 4, listed as crystalline dihydrate form (having average crystal sizes of about 1 mm), dihydrate) was “remained stable and unchanged”, the XRPD [1, 21] was “Pattern 4” and the “KF (%)” value ([1]; static storage 40° C./0% RH, Week 1, dihydrate, dihydrate crystals about 10-50 µm) was 7.5%. The XRPD ([1]; static storage 40° C./0% RH, Week 1, listed as crystalline dihydrate form (having crystal sizes in the range of about 10-50 μm , dihydrate)) was “Pattern 4”, the XRPD ([1]; static storage 40° C./0% RH, Week 2, dihydrate) was “Pattern 4” and the “KF (%)” value ([1]; static storage 40° C./0% RH, Week 2, dihydrate, dihydrate crystals about 10-50 µm) was 7.4%. The XRPD ([1]; static storage 40° C./0% RH, Week 2, listed as crystalline dihydrate form (having crystal sizes in the range of about 10-50 μm , dihydrate)) was “Pattern 4”, the XRPD ([1]; static storage 40° C./0% RH, Week 3, dihydrate) was “Anhydrous” and the “KF (%)” value ([1]; static storage 40° C./0% RH, Week 3, dihydrate, dihydrate crystals about 10-50 µm) was 7.0%. The XRPD ([1]; static storage 40° C./0% RH, Week 3, listed as crystalline dihydrate form (having crystal sizes in the range of about 10-50 μm , dihydrate)) was “Pattern 4 and peaks at 9.9° and 10.6°”, the “KF (%)” value ([1]; static storage 40° C./0% RH, Week 4, dihydrate, dihydrate crystals about 10-50 µm) was 3.4% and the “KF (%)” value [1, 22] was 0.2%. For the same compound, the XRPD [1, 22] was “partially converted to the crystalline anhydrous form”, the XRPD ([1]; static storage 40° C./0% RH, Week 4, listed as crystalline dihydrate form (having crystal sizes in the range of about 10-50 μm , dihydrate)) was “Pattern 4 and peaks at 9.9° and 10.6°” and the XRPD ([1]; static storage 40° C./75% RH, Week 1, dihydrate) was “Dihydrate”. The “KF (%)” value ([1]; static storage 40° C./75% RH, Week 1, dihydrate, dihydrate crystals about 10-50 µm) was 7.5%, the XRPD ([1]; static storage 40° C./75% RH, Week 2, dihydrate) was “Dihydrate” and the “KF (%)” value ([1]; static storage 40° C./75% RH, Week 2, dihydrate, dihydrate crystals about 10-50 µm) was 7.9%. The XRPD ([1]; static storage 40° C./75% RH, Week 3, dihydrate) was “Dihydrate”, the “KF (%)” value ([1]; static storage 40° C./75% RH, Week 3, dihydrate, dihydrate crystals about 10-50 µm) was 8.0% and the XRPD ([1]; static storage 40° C./75% RH, Week 4, dihydrate) was “Dihydrate”. The “KF (%)” value ([1]; static storage 40° C./75% RH, Week 4, dihydrate, dihydrate crystals about 10-50 µm) was 7.9% and the XRPD ([1]; static storage 40° C./75% RH, Week 4, listed as crystalline dihydrate form (having average crystal sizes of about 1 mm), dihydrate) was “remained stable and unchanged”.
For `Cc1nc(-c2cnc(NC(C)C)n(C)c2=O)ccc1Oc1ccnc(-c2cnn(C)c2)c1` [ground crystalline dihydrate form, 2-(isopropylamino)-3-methyl-5-(6-methyl-5-((2-(1-methyl-1H-pyrazol-4-yl)pyridin-4-yl)oxy)pyridin-2-yl)pyrimidin-4 (3H)-one dihydrate], the XRPD [1, 21] was “Pattern 4 and the crystalline anhydrous form”.
